# Laboratory results: publication PMC6158189, “A pharmacological probe identifies cystathionine β-synthase as a new negative regulator for ferroptosis” (Cell Death & Disease, 2018)
# Key:
# hCBS Q222A = molecular target: T1, hCBS Q222A (Homo sapiens, UniProt P35520, Q222A); test: purified hCBS mutant enzyme assay; assay type: biochemical; conditions: 1 mM HA, 60 mM Cys, 1.2 μM CBS-413 Q222A
# T1 construct: hCBS-413 (a C-terminal truncated hCBS 1–413); GST (N); made in house; host or cells: E. coli BL21
# T1 sequence (P35520 1-413 Q222A): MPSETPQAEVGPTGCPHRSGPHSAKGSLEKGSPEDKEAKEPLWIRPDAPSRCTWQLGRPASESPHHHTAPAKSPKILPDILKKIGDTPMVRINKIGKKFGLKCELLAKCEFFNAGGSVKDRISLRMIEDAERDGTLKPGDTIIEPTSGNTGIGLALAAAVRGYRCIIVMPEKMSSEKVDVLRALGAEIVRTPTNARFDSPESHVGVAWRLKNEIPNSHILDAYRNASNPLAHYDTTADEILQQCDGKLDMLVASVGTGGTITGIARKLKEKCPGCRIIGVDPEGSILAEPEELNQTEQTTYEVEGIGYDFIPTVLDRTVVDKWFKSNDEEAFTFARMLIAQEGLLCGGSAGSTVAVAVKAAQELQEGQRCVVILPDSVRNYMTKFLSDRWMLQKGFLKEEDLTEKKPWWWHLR
# Experimental: The IC50 values of CH004 for hCBS-413, hCBS-413 mutants, hCBS-FL, hCSE or hDDC were determined according to the standard assay conditions otherwise indicated.
# Figure S6. […] HEK293T cells stably expressing CBS Q222A mutant (293T-CBS Q222A) were treated with 0 (DMSO control), 5 or 10 μM CH004 for 8 h before staining with the AzMC to detect H2S. The overlaid images of fluorescent and bright-field images are shown in the left panel, and the corresponding fluorescent (blue, H2S) and bright-field images are shown in the middle and right panels, respectively. Bars: 50 μm. [picture] Figure S7. The CH004-insensitive CBS Q222A mutant can be inhibited by HA. (A) HEK293T cells stably expressing CBS Q222A mutant (293T-CBS Q222A) were treated with 0 (DMSO, control), 5 or 10 μM of CH004, 1 mM or 2 mM of HA for 8 h before staining with the AzMC to detect H2S. The overlaid images of fluorescent and bright-field images are shown in the upper panel, and the corresponding fluorescent (blue, H2S) and bright-field images are shown in the middle and lower panels, respectively. Bars: 50 μm. (B) Quantification of the mean fluorescent density of H2S (blue). The intensity of blue light of the fluorescent images was quantified by ImageJ software, quantified and deduced the background signal in HEK293T-EV cells (Supplementary Figure S3B), normalized by the corresponding cell area and expressed as percentages of control (DMSO group, 100%). Means ± SDs (n=3). One-way ANOVA with Bonferroni post-tests was used for the analysis. *, p< 0.05; **, p< 0.01; n.s. no significance. The images are one representative from three independent experiments. (C) The inhibitory effect of 1 mM HA on purified CBS Q222A mutant. The assay was performed using 60 mM Cys and 1.2 μM CBS-413 Q222A mutant. The data were expressed as percentages of control (DMSO, 100%). Means ± SDs (n=4). [picture]
# Table S2. Inhibitory effects of CH004 on hCBS WT and mutants.
# [1] = molecular target: T2, CBS-FL mutant (293T-CBS Q222A) (Homo sapiens, UniProt P35520, Q222A); test: H2S in HEK293T cells stably expressing CBS Q222A (AzMC probe); assay type: cell-based; conditions: 1 mM or 2 mM HA, 8 h
# T2 construct: human CBS or hCSE full-length (CBS-FL or CSE) was subcloned into pGEX-KG, pcDNA3 or pCDH vector; expressed in transfected cells
# Experimental: HEK293T cells were transiently transfected with empty vector (EV, i and ii), hCBS-FL (iii and iv) or hCSE (v and vi) plasmids, followed by incubation with DMSO (i–iii and v) or 10 μM CH004 (iv and vi) for 8 h before staining with 50 μM AzMC, a H2S-specific probe (“Materials and Methods” section). For larger fluorescent and bright-field images, please see Supplementary Figure 4. The expression levels of hCBS or hCSE in HEK293T cells after transient transfections were determined by western blotting using an anti-CBS antibody (3E1, 1:2000; Abnova) or anti-CSE antibody (1:500, GeneTex). The densities of protein bands for hCBS or hCSE in the blots were quantified with the ImageJ software (National Institutes of Health, Bethesda, MD, USA) and expressed as ratios of respective control (EV group). […] The fluorescent images of the H2S (blue) were accordingly quantified (“Materials and Methods” section) with ImageJ. […] A representative fluorescence image from three independent experiments is shown. […]
# H2S levels in living cells were detected using a H2S-specific fluorescent probe according to a protocol described previously[31],[55]. […] After incubation with 50 μM AzMC at 37 °C for 30 min, the cells were washed 4 times with PBS, and the fluorescent images were recorded with excitation by 405 nm laser by using a A1Si (Nikon) confocal microscope. […]
compound,measurement,setting,value
"NO [HA, hydroxylamine, reference compound]",inhibitory effect on activity of purified CBS Q222A mutant,hCBS Q222A,could be suppressed
same,effect on H2S,[1],substantially decreased
